“And” between values parts separate entries of the source, which are not always exact repeats. Equal values may be shown once. “Also recorded” adds a separate entry of the source.
Tested on: collagen-induced arthritis
Assay: Collagen-induced arthritis (CIA) model in rats: body weight, paw volume, clinical scores, clinical observations
Details: CIA rats
[1] = 3 mg/kg twice daily P.O. (group 5)
[2] = 3 mg/kg twice daily P.O. (group 5), day 13
[3] = 3 mg/kg twice daily P.O. (group 5), day 14
[4] = 3 mg/kg twice daily P.O. (group 5), days 18, 19 and 21
[5] = 10 mg/kg twice daily P.O. (group 6)
[6] = 10 mg/kg twice daily P.O. (group 6), day 12
[7] = 10 mg/kg twice daily P.O. (group 6), day 14

CNC(=O)c1[nH]c(C(=O)NC2CCC2)cc1O[C@@H](C)c1ccccc1 (stereo in doubt) [Example 101, N^5-cyclobutyl-N^2-methyl-3-(1-phenylethoxy)-1H-pyrrole-2,5-dicarboxamide]
day on which paw volume noticeably increased [1]: ~14 days | effect on hind paw volume [1]: less effective at preventing an increase in paw volume over the course of the study; also recorded: performed similarly to GSK620 | average overall clinical score at plateau (3 mg/kg twice daily P.O. (group 5), around day 18): 10 | animals exhibiting signs of disease (3 mg/kg twice daily P.O. (group 5), day 12): Three animals | animals exhibiting disease [2]: 5/8 | animals with a clinical score of 2 in one hind limb [2]: 1/8 | animals exhibiting disease [3]: all animals | animals with clinical scores of at least 2 in one or more hind limbs [3]: 2/8 | animals with a score of 4 in one hind limb and a score of 3 in the other hind limb [4]: 2/8 | animals with scores of 4 in each hind limb [4]: 6/8 | paw volume increase at plateau relative to day 0 (3 mg/kg twice daily P.O. (group 5), plateau at days 18-19): approximately 90% | Average animal paw volume percent change (3 mg/kg, Day 0, left hind paw (L)): 0.00% | Animal paw volume Day 0 L (3 mg/kg, Day 0, left paw, individual animals): 1.36 mL and 1.31 mL (2×) and 1.32 mL (2×) and 1.35 mL and 1.37 mL and 1.34 mL | Average animal paw volume percent change (3 mg/kg, Day 0, right hind paw (R)): 0.00% | Animal paw volume Day 0 R (3 mg/kg, Day 0, right paw, individual animals): 1.38 mL and 1.32 mL (2×) and 1.34 mL (3×) and 1.31 mL and 1.35 mL | Average animal paw volume percent change (3 mg/kg, Day 6, left hind paw (L)): 1.09% | Animal paw volume Day 6 L (3 mg/kg, Day 6, left paw, individual animals): 1.36 mL (2×) and 1.32 mL (2×) and 1.40 mL and 1.31 mL and 1.37 mL and 1.35 mL | Average animal paw volume percent change (3 mg/kg, Day 6, right hind paw (R)): 1.23% | Animal paw volume Day 6 R (3 mg/kg, Day 6, right paw, individual animals): 1.38 mL and 1.33 mL and 1.35 mL and 1.40 mL and 1.36 mL (2×) and 1.32 mL and 1.34 mL | Average animal paw volume percent change (3 mg/kg, Day 12, left hind paw (L)): 5.80% | Animal paw volume Day 12 L (3 mg/kg, Day 12, left paw, individual animals): 1.38 mL and 1.32 mL and 1.39 mL (3×) and 1.42 mL and 1.37 mL and 1.63 mL | Average animal paw volume percent change (3 mg/kg, Day 12, right hind paw (R)): 5.01% | Animal paw volume Day 12 R (3 mg/kg, Day 12, right paw, individual animals): 1.40 mL and 1.43 mL and 1.38 mL (2×) and 1.46 mL and 1.44 mL and 1.36 mL and 1.39 mL | Average animal paw volume percent change (3 mg/kg, Day 13, left hind paw (L)): 15.11% | Animal paw volume Day 13 L (3 mg/kg, Day 13, left paw, individual animals): 1.62 mL and 1.53 mL and 1.50 mL and 1.54 mL and 1.38 mL and 1.86 mL and 1.43 mL and 1.41 mL | Average animal paw volume percent change (3 mg/kg, Day 13, right hind paw (R)): 9.28% | Animal paw volume Day 13 R (3 mg/kg, Day 13, right paw, individual animals): 1.42 mL (2×) and 1.50 mL and 1.41 mL and 1.47 mL and 1.40 mL and 1.68 mL and 1.39 mL | Average animal paw volume percent change (3 mg/kg, Day 14, left hind paw (L)): 27.04% | Animal paw volume Day 14 L (3 mg/kg, Day 14, left paw, individual animals): 1.67 mL and 1.68 mL (2×) and 1.64 mL and 1.59 mL and 2.01 mL and 1.63 mL (2×) | Average animal paw volume percent change (3 mg/kg, Day 14, right hind paw (R)): 19.52% | Animal paw volume Day 14 R (3 mg/kg, Day 14, right paw, individual animals): 1.57 mL and 1.52 mL and 1.41 mL and 1.87 mL and 1.50 mL and 2.04 mL and 1.43 mL (2×) | Average animal paw volume percent change (3 mg/kg, Day 15, left hind paw (L)): 39.96% | Animal paw volume Day 15 L (3 mg/kg, Day 15, left paw, individual animals): 1.72 mL and 1.70 mL and 1.91 mL and 1.65 mL and 2.44 mL and 2.06 mL and 1.74 mL and 1.68 mL | Average animal paw volume percent change (3 mg/kg, Day 15, right hind paw (R)): 43.85% | Animal paw volume Day 15 R (3 mg/kg, Day 15, right paw, individual animals): 1.66 mL and 1.62 mL and 2.31 mL and 1.71 mL and 2.41 mL and 2.02 mL and 1.99 mL and 1.64 mL | Average animal paw volume percent change (3 mg/kg, Day 18, left hind paw (L)): 87.19% | Animal paw volume Day 18 L (3 mg/kg, Day 18, left paw, individual animals): 2.40 mL and 2.65 mL and 2.62 mL and 2.44 mL (2×) and 2.70 mL and 2.47 mL and 2.22 mL | Average animal paw volume percent change (3 mg/kg, Day 18, right hind paw (R)): 89.41% | Animal paw volume Day 18 R (3 mg/kg, Day 18, right paw, individual animals): 2.21 mL and 2.56 mL and 2.65 mL and 2.37 mL and 2.70 mL and 2.55 mL and 2.50 mL and 2.71 mL | Average animal paw volume percent change (3 mg/kg, Day 19, left hind paw (L)): 98.39% | Animal paw volume Day 19 L (3 mg/kg, Day 19, left paw, individual animals): 2.51 mL and 2.85 mL and 2.75 mL and 2.50 mL and 2.71 mL and 2.60 mL and 2.43 mL and 2.79 mL | Average animal paw volume percent change (3 mg/kg, Day 19, right hind paw (R)): 94.99% | Animal paw volume Day 19 R (3 mg/kg, Day 19, right paw, individual animals): 2.21 mL and 2.91 mL and 2.63 mL and 2.37 mL and 2.68 mL and 2.80 mL and 2.49 mL and 2.76 mL | Average animal paw volume percent change (3 mg/kg, Day 21, left hind paw (L)): 100.54% | Animal paw volume Day 21 L (3 mg/kg, Day 21, left paw, individual animals): 2.49 mL and 3.01 mL and 2.76 mL and 2.51 mL and 2.68 mL and 2.64 mL and 2.41 mL and 2.87 mL | Average animal paw volume percent change (3 mg/kg, Day 21, right hind paw (R)): 94.48% | Animal paw volume Day 21 R (3 mg/kg, Day 21, right paw, individual animals): 2.23 mL and 2.91 mL and 2.61 mL and 2.34 mL and 2.69 mL and 2.77 mL (2×) and 2.47 mL | average overall clinical score at plateau [5]: 7 | day on which paw volume increased [5]: ~14 days | effect on hind paw volume [5]: Paw volume increases were delayed; also recorded: more effective at controlling paw volume | paw volume relative to CIA + vehicle (group 2) [5]: significantly decreased relative to group 2 on days 19 and 21 (both paws, p<0.05) | animals exhibiting signs of disease [6]: 3/8 | animals with a score of 2 in one hind limb [6]: one animal | animals exhibiting disease (10 mg/kg twice daily P.O. (group 6), day 13): 4/8 | animals with a score of 3 in one or more hind limbs [7]: 3/8 | animals with a score of 4 in a hind limb [7]: 1/8 | animals exhibiting disease (10 mg/kg twice daily P.O. (group 6), day 15): 7/8 | animals with scores of 4 in one or more hind limbs (10 mg/kg twice daily P.O. (group 6), day 18): 4/8 | animals exhibiting disease (10 mg/kg twice daily P.O. (group 6), day 19): all animals

From patent US20250263370A1 (Tay Therapeutics Limited, priority 2022, published 2025)
